According to article PMC11124822, “Discovery and Anticancer Screening of Novel Oxindole-Based Derivative Bearing Pyridyl Group as Potent and Selective Dual FLT3/CDK2 Kinase Inhibitor” (Pharmaceuticals, 2024):
Where two headings read alike, the source gives them in different places.

Tests used:
[1] = tested on: NCI-60 human cancer cell lines; experiment: NCI-60 screen, full panel summary; type: cell-based
Description: In a comprehensive test, compounds were assayed at a single dose concentration (10^−5 M) in the full panel of NCI-60 cancer cell lines.

SN12C = experiment: NCI-60 antiproliferative screen (SRB); type: cell-based, human; settings: 48 h
NCI-H322M = experiment: NCI-60 antiproliferative screen (SRB); type: cell-based, human; settings: five-dose, 48 h, NCI-H322M
LOX IMVI = experiment: NCI-60 antiproliferative screen (SRB); type: cell-based, human; settings: 48 h; for CC50: read-out: LC50 (the source's name)
DU-145 = experiment: NCI-60 antiproliferative screen (SRB); type: cell-based, human; settings: 48 h
SNB-75 = experiment: NCI-60 antiproliferative screen (SRB); settings: Homo sapiens, SNB-75, 48 h, read-out: Growth inhibition (%)
Description: Anticancer activity was tested against 60 cancer cell lines (NCI-60) after 48h treatments with a single dosage of 10 μM of compounds by using sulforhodamine B assay [39] on the traditional 96-well platform. […] The human cancer cell lines of the NCI-60 panel are grown in RPMI 1640 medium supplemented with 5% FBS (fetal bovine serum) and 2 mM L-glutamine. […] For further analysis of promising compounds, five dose screens were performed against the NCI-60 panel. Drug treatments are performed in 5 doses using 10-fold or ½ log dose dilutions.

NCI-H226 = experiment: NCI-60 antiproliferative screen (SRB); type: cell-based, human; settings: 48 h
PC-3 = experiment: NCI-60 antiproliferative screen (SRB); type: cell-based, human; settings: 48 h
SF-539 = experiment: NCI-60 antiproliferative screen (SRB); type: cell-based, human; settings: 48 h
OVCAR-8 = experiment: NCI-60 antiproliferative screen (SRB); type: cell-based, human; settings: 48 h
HL-60(TB) = experiment: NCI-60 antiproliferative screen (SRB); type: cell-based, human; settings: 48 h
OVCAR-3 = experiment: NCI-60 antiproliferative screen (SRB); type: cell-based, human; settings: 48 h
CAKI-1 = experiment: NCI-60 antiproliferative screen (SRB); type: cell-based, human; settings: 48 h
HCC-2998 = experiment: NCI-60 antiproliferative screen (SRB); type: cell-based, human; settings: 48 h
SF-295 = experiment: NCI-60 antiproliferative screen (SRB); type: cell-based, human; settings: 48 h
MALME-3M = experiment: NCI-60 antiproliferative screen (SRB); type: cell-based, human; settings: five-dose, 48 h, MELME-3M

For O=C1Nc2cc(Cl)ccc2C1=Cc1ccc(OCc2cccnc2)cc1 (mixture of isomers) [Compound 5l, (E/Z)-6-Chloro-3-[4-(pyridin-3-ylmethoxy)benzylidene] indolin-2-one], which inhibition at 10 µM ([1]; Homo sapiens, 10 µM single dose, read-out: Range of Growth Inhibition on All Cells) is on record?
The inhibition at 10 µM was 8.89 to 153%.

And the GI50 ([1]; Homo sapiens, five-dose, almost all cell lines, read-out: GI50 values, range over evaluated human cancer types)?
The GI50 was 2.7 to 77.1 µM.

What about the CC50 ([1]; Homo sapiens, five-dose, excluding LOX IMVI, SK-MEL-5, SK-MEL-28, read-out: LC50 for most of the examined cancer cells) of the same molecule?
Its CC50 is > 100 µM.

What about the GI50 ([1]; Homo sapiens, five-dose, full panel, read-out: Full panel MG-MID (GI50)) of the same molecule?
The GI50 was 12.2 µM.

And the “TGI against the left-over cancer cells” value ([1]; five-dose)?
The value was > 100 µM.

And the inhibition at 10 µM (SN12C; Homo sapiens, 10 µM single dose, SN12C (Renal), read-out: Growth inhibition (%))?
The inhibition at 10 µM was 66.1%.

What about the GI50 (SN12C; Homo sapiens, five-dose, SN12C) of the same molecule?
Its GI50 is 9.74 µM.

What about the CC50 (SN12C; Homo sapiens, five-dose, SN12C, read-out: LC50 (the source's name)) of the same molecule?
Its CC50 is > 100 µM.

And the TGI (SN12C; five-dose, SN12C)?
The TGI was 66.60 µM.

What about the GI50 (NCI-H322M; Homo sapiens) of the same molecule?
The GI50 was 23.2 µM.

What about the TGI (NCI-H322M) of the same molecule?
Its TGI is >100 µM.

And the CC50 (LOX IMVI; Homo sapiens, LOX IMVI, five-dose, LOX IMVI)?
Its CC50 is 96.9 µM.

What about the inhibition at 10 µM (LOX IMVI; Homo sapiens, 10 µM single dose, LOX IMVI (Melanoma), read-out: Growth inhibition (%)) of the same molecule?
The inhibition at 10 µM was 91%.

And the GI50 (LOX IMVI; Homo sapiens, five-dose, LOX IMVI)?
Its GI50 is 4.7 µM.

What about the TGI (LOX IMVI; five-dose, LOX IMVI) of the same molecule?
Its TGI is 24.80 µM.

And the CC50 (LOX IMVI; five-dose, LOX IMVI)?
The CC50 was 96.6 µM.

What about the inhibition at 10 µM (DU-145; Homo sapiens, 10 µM single dose, DU-145 (Prostate), read-out: Growth inhibition (%)) of the same molecule?
The inhibition at 10 µM was 58.6%.

What about the GI50 (DU-145; Homo sapiens, five-dose, DU-145) of the same molecule?
Its GI50 is 13.2 µM.

What about the TGI (DU-145; five-dose, DU-145) of the same molecule?
Its TGI is 54.90 µM.

What about the inhibition at 10 µM (SNB-75) of the same molecule?
The inhibition at 10 µM was 18.3%.

And the inhibition at 10 µM (NCI-H226; Homo sapiens, 10 µM single dose, NCI-H226 (NSCLC), read-out: Growth inhibition (%))?
The inhibition at 10 µM was 62.9%.

What about the GI50 (NCI-H226; Homo sapiens, five-dose, NCI-H226) of the same molecule?
The GI50 was 9 µM.

What about the TGI (NCI-H226; five-dose, NCI-H226) of the same molecule?
The TGI was 70.00 µM.

And the inhibition at 10 µM (PC-3; Homo sapiens, 10 µM single dose, PC-3 (Prostate), read-out: Growth inhibition (%))?
The inhibition at 10 µM was 67.1%.

And the GI50 (PC-3; Homo sapiens, five-dose, PC-3)?
Its GI50 is 6.37 µM.

What about the CC50 (PC-3; Homo sapiens, five-dose, PC-3, read-out: LC50 (the source's name)) of the same molecule?
Its CC50 is > 100 µM.

And the TGI (PC-3; five-dose, PC-3)?
The TGI was >100 µM.

And the inhibition at 10 µM (SF-539; Homo sapiens, 10 µM single dose, SF-539 (CNS), read-out: Growth inhibition (%))?
Its inhibition at 10 µM is 59.3%.

What about the GI50 (SF-539; Homo sapiens, five-dose, SF-539) of the same molecule?
Its GI50 is 13.6 µM.

What about the TGI (SF-539; five-dose, SF-539) of the same molecule?
Its TGI is >100 µM.

What about the inhibition at 10 µM (OVCAR-8; Homo sapiens, 10 µM single dose, OVCAR-8 (Ovarian), read-out: Growth inhibition (%)) of the same molecule?
Its inhibition at 10 µM is 88.6%.

What about the GI50 (OVCAR-8; Homo sapiens, five-dose, OVCAR-8) of the same molecule?
The GI50 was 7.96 µM.

And the TGI (OVCAR-8; five-dose, OVCAR-8)?
Its TGI is 45.20 µM.

And the GI50 (HL-60(TB); Homo sapiens, HL-60, five-dose, HL60(TB))?
The GI50 was 4.08 µM.

And the CC50 (HL-60(TB); Homo sapiens, HL-60, five-dose, HL60(TB), read-out: LC50 (the source's name))?
The CC50 was > 100 µM.

What about the inhibition at 10 µM (HL-60(TB); Homo sapiens, 10 µM single dose, HL-60(TB) (Leukemia), read-out: Growth inhibition (%)) of the same molecule?
Its inhibition at 10 µM is 95.5%.

And the TGI (HL-60(TB); five-dose, HL60(TB))?
Its TGI is >100 µM.

What about the inhibition at 10 µM (OVCAR-3; Homo sapiens, 10 µM single dose, OVCAR-3 (Ovarian), read-out: Growth inhibition (%)) of the same molecule?
The inhibition at 10 µM was 61.8%.

And the GI50 (OVCAR-3; Homo sapiens, five-dose, OVCAR-3)?
Its GI50 is 57.7 µM.

And the CC50 (OVCAR-3; Homo sapiens, five-dose, OVCAR-3, read-out: LC50 (the source's name))?
Its CC50 is > 100 µM.

And the TGI (OVCAR-3; five-dose, OVCAR-3)?
The TGI was 2.26 µM.

What about the inhibition at 10 µM (CAKI-1; Homo sapiens, 10 µM single dose, CAKI-1 (Renal), read-out: Growth inhibition (%)) of the same molecule?
The inhibition at 10 µM was 69.8%.

And the GI50 (CAKI-1; Homo sapiens, five-dose, CAKI-1)?
The GI50 was 4.44 µM.

What about the CC50 (CAKI-1; Homo sapiens, five-dose, CAKI-1, read-out: LC50 (the source's name)) of the same molecule?
The CC50 was > 100 µM.

What about the TGI (CAKI-1; five-dose, CAKI-1) of the same molecule?
The TGI was 26.90 µM.

And the inhibition at 10 µM (HCC-2998; Homo sapiens, 10 µM single dose, HCC-2998 (Colon), read-out: Growth inhibition (%))?
The inhibition at 10 µM was 50.9%.

What about the GI50 (HCC-2998; Homo sapiens, five-dose, HCC-2998) of the same molecule?
Its GI50 is 13.7 µM.

What about the CC50 (HCC-2998; Homo sapiens, five-dose, HCC-2998, read-out: LC50 (the source's name)) of the same molecule?
Its CC50 is > 100 µM.

And the TGI (HCC-2998; five-dose, HCC-2998)?
Its TGI is >100 µM.

What about the inhibition at 10 µM (SF-295; Homo sapiens, 10 µM single dose, SF-295 (CNS), read-out: Growth inhibition (%)) of the same molecule?
The inhibition at 10 µM was 63.3%.

And the GI50 (SF-295; Homo sapiens, five-dose, SF-295)?
Its GI50 is 10.6 µM.

And the TGI (SF-295; five-dose, SF-295)?
The TGI was 39.90 µM.

And the GI50 (MALME-3M; Homo sapiens, Malme-3M)?
Its GI50 is 18.9 µM.

And the TGI (MALME-3M)?
The TGI was 75.70 µM.
